Paper PMC4491176, “Caenorhabditis elegans is a useful model for anthelmintic discovery” (Nature Communications, 2015)

Legend:
[1] = tested on: wact-11-family resistant C. elegans mutants (RP2674, RP2698 and others); test: 96-well liquid-based dose-response (in vivo LD100), wact-11-family resistant mutants; conditions: liquid dose-response of resistant mutants versus N2
Method: (§1) The 96-well liquid-based chemical screening assay was adapted from an established RNAi screening protocol. Briefly, saturated HB101 Escherichia coli culture was concentrated 2-fold using NGM (nematode growth media) containing 3 mg ml^−1 NaCl, 2.5 mg ml^−1 peptone, 5 μg ml^−1 cholesterol, 1 mM CaCl2, 1 mM MgSO4 and 25 mM KH2PO4. A total of 40 μl of NGM+HB101 was dispensed into each well of a 96-well plate, and chemicals were pinned into the wells using a pinning tool with a 300 nl slot volume (V&P Scientific). Approximately 20 synchronized first larval-stage (L1) worms, in 10 μl of M9 buffer (see ref. [24] for the recipe), were then added to each well. The synchronized L1s were obtained from an embryo preparation (see ref. [24] for the protocol) performed the previous day. The final concentration of dimethyl sulfoxide (DMSO) in the wells was 0.6% v/v. A dissection microscope was used to visualize the wells either 5 or 6 days post worm deposition and any obvious chemical-induced phenotypes were noted.
The 96-well liquid-based assay was also used for all follow-up dose-response experiments in this work. These experiments were carried out in quadruplicate, and the total number of worms in each well was counted 6 days after worm deposition.

C. elegans = C. elegans liquid-based chemical screening of the wactive library; assay type: in vivo, Caenorhabditis elegans; design: key: 1 = yes
Method: as §1
For our preliminary screens, 50,596 out of 67,012 compounds were assayed in liquid at a 60 μM concentration, and the other 16,416 molecules were screened on solid media at 25 μM (see ref. [24] for a description of our solid-based screening method). […]

C. onchophora = test: C. oncophora egg hatch chemical screen; assay type: in vivo, Cooperia onchophora; design: key: 1 = yes; conditions: 90-100% lethal at 7.5 or 60 μM
Method: (§2) Fresh cattle and sheep faeces containing eggs of an ivermectin-resistant strain of C. onchophora[39] and the MHco3(ISE) strain of H. contortus, respectively, were kindly supplied by Dr Doug Colwell and Dawn Gray (Lethbridge Research Station, Agriculture and Agri-Food Canada). Experimental infections used to generate this material were carried out using established methods, and were approved by the Lethbridge AAFC Animal Care committee and conducted under animal use license ACC1407. Cattle faeces containing C. onchophora eggs were stored anaerobically at 4 °C for a maximum of 3 weeks, whereas sheep faeces containing H. contortus eggs were stored at 20 °C for no more than 48 h before harvesting eggs for use. Eggs were isolated from faeces using a standard saturated salt flotation method[42] immediately before each egg hatch assay. Approximately 100 eggs suspended in 100 μl of water were added to each well of a 96-well plate, and the wactive library chemicals were screened at two different concentrations (7.5 and 60 μM, 0.6% DMSO v/v). Baseline egg hatch rates were determined in DMSO control wells ∼48 h after the initial set-up of the assay by the addition of iodine tincture to stop development. […] A dissection microscope was used for visualization purposes.

H. contortus = H. contortus egg hatch chemical screen; assay type: in vivo, Haemonchus contortus; conditions: 90-100% lethal at 7.5 or 60 μM
Method: as §2

D. rerio = test: Zebrafish embryo chemical screening; assay type: in vivo, Danio rerio (zebrafish); conditions: embryos, 10 μM, death or toxicity at 24 and 48 h post fertilization
Method: Wild-type (AB) zebrafish embryos were collected in E3 solution (5 mM NaCl, 0.17 mM KCl, 0.33 mM CaCl2, 0.33 mM MgSO4) immediately after fertilization and arrayed at three embryos per well in 96-well plates, 200 μl per well. Wild-type (AB) zebrafish were originally obtained from Zebrafish International Resource Center (University of Oregon). Chemicals were added to each well at 6 h post fertilization at a final concentration of 10 μM (0.5% v/v DMSO), with each plate containing nine wells of DMSO controls. Embryos were examined for mortality and observable developmental phenotypes at 24 and 48 h post fertilization using an Olympus SZX10 Brightfield microscope. Phenotypes examined were death, developmental delay, reduced pigmentation, cranial oedema or cardiac defects (slow/absent heart rate, abnormal heart size). Each compound was screened in duplicate, with only phenotypes appearing in both replicates associated with a given compound. Any compound producing multiple, distinct phenotypes across replicates (for example, cardiac defects in one replicate, mortality in another) was labelled ‘toxic'. A molecule was considered ‘lethal' to zebrafish if it induced ‘death' or ‘toxicity'.

HEK293T cells = test: HEK293 cell proliferation (BrdU) chemical screening; assay type: cell-based; conditions: 60 μM, BrdU normalized signal <0.16
Method: HEK293T cells (Attisano Lab, University of Toronto) were maintained in Dulbecco's Modified Eagle's Medium (Gibco) supplemented with 10% FBS (DMEM-10% FBS). Cells at a concentration of 50 cells μl^−1 were seeded into 96-well plates at a final volume of 100 μl (∼5,000 cells per well). Chemicals from the wactive library were added to the wells for a final concentration of 60 μM (0.6% DMSO v/v). The wactive library plates were screened at least in triplicate. Cell proliferation was determined using a bromodeoxyuridine (BrdU) assay kit (Exalpha Biologicals Inc.). The BrdU was added 2 days after chemical addition. Fixation and denaturation was performed ∼16–18 h later. Anti-BrdU antibody was added, and incorporated BrdU was detected using a horseradish peroxidase-conjugated goat anti-mouse antibody. The BrdU incorporation signal was measured at 450/550 nm for the amount of conversion of tetra-methylbenzidine that is proportional to the amount of BrdU incorporated. For each replicate of each plate, the average signal for the DMSO control wells was calculated. For each well in the plate (including the DMSO control wells), the signal was normalized by dividing by the average DMSO signal. The mean and standard deviation for the population of 960 normalized sample signals of the 10-plate wactive library were calculated and found to be […] and 0.44, respectively.

[2] = tested on: three nematode species, zebrafish and HEK cells; test: Grouping by phylogenetic bioactivity profile (multi-organism screening pipeline); design: key: Group 1 molecules are lethal to only one or two of the three nematode species tested, but are non-lethal to zebrafish and HEK cells.; Group 2 molecules are lethal to all three nematode species, but are non-lethal to zebrafish and human cells.; Group 3 molecule are lethal to fish or HEK cells, regardless of their nematode bioactivity profile; conditions: nematode selectivity and cross-species lethality group
Text: To further characterize our 275 C. elegans-lethal molecules, we organized them into three separate groups based on their phylogenetic bioactivity profiles (Fig. 2a). Group 1 contains 102 molecules that are lethal to only one or two of the three nematode species tested, but are non-lethal to zebrafish and HEK cells. Group 2 contains 67 compounds that are lethal to all three nematode species, but are non-lethal to zebrafish and human cells. Group 3 contains the remaining 106 compounds that are lethal to fish or HEK cells, and have varied bioactivity in different nematode species. In particular, the 67 molecules in group 2 represent potentially ideal anthelmintic leads; they have activity across multiple nematode species, and appear not to affect vertebrates.

With `Brc1ccc(-c2noc(-c3cccs3)n2)cc1` [wact-2] the “Resistance of wact-11-family resistant mutants to compound-induced lethality (in words)” value [1] was “not”, the “C. elegans Lethal (1 = yes)” value (C. elegans; 100% lethality at 60 μM or less) was 1 and the “Wactive (1 = yes)” value (C. elegans; induces obvious phenotype in C. elegans at 60 μM or less) was 1. The “C. onchophora Lethal (1 = yes)” value (C. onchophora) was 1, the “H. contortus Lethal (1 = yes)” value (H. contortus) was 0 and the “D. rerio Lethal (1 = yes)” value (D. rerio) was 0. For the same molecule, the “HEK Cell Growth Decrease (1 = yes)” value (HEK293T cells) was 0 and the “Group # (Bioactivity Group #)” value [2] was 1.
